Results as given in ChEMBL document CHEMBL1201862, “PubChem BioAssay data set” (2004).
Calls of active or inactive are those of the source.

Key:
Prothrombin [1] = biological target: Prothrombin (Bos taurus, UniProt P00735); assay: thrombin inhibition, dose response, biochemical, fluorescence polarization, uHTS hits (AID 602369); format: functional
[2] = system: Streptococcus sp. 'group A'; assay: growth inhibition of control SK(-) GAS strain, dose response, counter-screen for streptokinase expression inhibitor project, luminescence, kanamycin, BacTiterGlo, confirmation (AID 1900); format: functional, organism-based
[3] = biological target: 26S proteasome non-ATPase regulatory subunit 14 (Homo sapiens, UniProt O00487); assay: inhibition of proteasome subunit RPN11 – biochemical, fluorescence polarization, uHTS hits, confirmation (AID 602368); format: functional
[4] = biological target: 72 kDa type IV collagenase (Homo sapiens, UniProt P08253); assay: Dose Response validation of uHTS RPN11 inhibitor hits using a MMP-2 Fluorescence assay.; format: functional
Streptokinase A = biological target: T1, Streptokinase A (Streptococcus pyogenes serotype M1, UniProt P10520); assay: S. pyogenes streptokinase expression inhibitors, potency, dose response, plasminogen activation absorbance, OD405 (AID 1914); format: functional, Streptococcus pyogenes M1 GAS;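 further: secreted streptokinase activity via plasminogen activation per viability signal from cell pellet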
T1 sequence (P10520 whole entry): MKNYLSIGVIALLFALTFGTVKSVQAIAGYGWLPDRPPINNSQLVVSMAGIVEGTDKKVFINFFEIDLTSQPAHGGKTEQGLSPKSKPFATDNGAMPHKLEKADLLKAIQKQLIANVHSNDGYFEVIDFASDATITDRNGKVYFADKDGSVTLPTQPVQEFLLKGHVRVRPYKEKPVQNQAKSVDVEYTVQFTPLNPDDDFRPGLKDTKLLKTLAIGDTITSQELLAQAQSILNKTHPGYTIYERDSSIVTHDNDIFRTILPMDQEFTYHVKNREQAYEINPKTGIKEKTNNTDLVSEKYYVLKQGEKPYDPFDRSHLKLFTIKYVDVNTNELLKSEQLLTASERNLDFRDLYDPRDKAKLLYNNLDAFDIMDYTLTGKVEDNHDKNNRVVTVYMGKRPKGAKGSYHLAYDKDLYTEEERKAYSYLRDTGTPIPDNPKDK

Streptococcus = assay: Group A Streptococcus viability loss, dose response, counter-screen for streptokinase expression inhibitor project, luminescence, BacTiterGlo (AID 1915); format: functional, organism-based;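 further: potency for reduction of bacterial viability or growth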
[5] = inhibitors of intracellular T. cruzi replication, confirmation, NIH3T3 host cells, beta-gal luminescence (AID 2044); format: functional, cell-based;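 further: intracellular parasites grown in NIH/3T3 mouse fibroblasts as host cells; luminescent beta-galactosidase reporter signal from transgenic T. cruzi replicating inside host cells; inhibitors lower the luminescence signal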
[6] = cytotoxicity toward NIH3T3 fibroblasts, dose response, counter-screen, cell-based, ATP luminescence, mouse fibroblasts (AID 2010); format: functional;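 further: cells exposed to compound for about 90 hours before reading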
Prothrombin [7] = biological target: Prothrombin (Homo sapiens, UniProt P00734); assay: Thrombin 1536 HTS Dose Response Confirmation. [Related pubchem assays: 1046 (Thrombin 1536 HTS; hits were confirmed in this assay)]; format: functional
[8] = LGR2 antagonists, dose response, cell-based, HEK293, CRE-luciferase reporter, cherry pick, set 2 (AID 743343); format: functional;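 further: transfected cells were stimulated with diluted bursicon conditioned medium after compound addition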
[9] = biological target: Bifunctional protein GlmU (Mycobacterium tuberculosis, UniProt P9WMN3); assay: Inhibitors of Mycobacterial Glucosamine-1-phosphate acetyl transferase (GlmU). Secondary screen.; set-up: species or system Mycobacterium tuberculosis H37Rv
[10] = HepG2 cell cytotoxicity, dose response, cytotoxicity control, plate reader, cherry-pick, antagonist series (AID 743416); format: functional, cell-based
CHO = assay: cytotoxicity in TLR9-MyD88 CHO cells, dose response, cytotoxicity control for TLR9-MyD88 binding inhibitor project, cell-based, luminescence (AID 588339); format: functional, hamster; details: Cricetulus griseus;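 further: CHO cells stably coexpressing TLR9 and MyD88 fusions from primary screen; compound exposure lasted 48 hours before viability readout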
[11] = HEK293 cell cytotoxicity, dose response, cytotoxicity control, plate reader, cherry-picked samples (AID 743446); format: functional, cell-based
[12] = biological target: T2, Replicative DNA helicase DnaB (Mycobacterium tuberculosis, UniProt P9WMR3); assay: DnaB intein splicing inhibitors, dose response, biochemical, cell-free fluorescence (AID 449749); format: functional
T2 sequence (P9WMR3 whole entry): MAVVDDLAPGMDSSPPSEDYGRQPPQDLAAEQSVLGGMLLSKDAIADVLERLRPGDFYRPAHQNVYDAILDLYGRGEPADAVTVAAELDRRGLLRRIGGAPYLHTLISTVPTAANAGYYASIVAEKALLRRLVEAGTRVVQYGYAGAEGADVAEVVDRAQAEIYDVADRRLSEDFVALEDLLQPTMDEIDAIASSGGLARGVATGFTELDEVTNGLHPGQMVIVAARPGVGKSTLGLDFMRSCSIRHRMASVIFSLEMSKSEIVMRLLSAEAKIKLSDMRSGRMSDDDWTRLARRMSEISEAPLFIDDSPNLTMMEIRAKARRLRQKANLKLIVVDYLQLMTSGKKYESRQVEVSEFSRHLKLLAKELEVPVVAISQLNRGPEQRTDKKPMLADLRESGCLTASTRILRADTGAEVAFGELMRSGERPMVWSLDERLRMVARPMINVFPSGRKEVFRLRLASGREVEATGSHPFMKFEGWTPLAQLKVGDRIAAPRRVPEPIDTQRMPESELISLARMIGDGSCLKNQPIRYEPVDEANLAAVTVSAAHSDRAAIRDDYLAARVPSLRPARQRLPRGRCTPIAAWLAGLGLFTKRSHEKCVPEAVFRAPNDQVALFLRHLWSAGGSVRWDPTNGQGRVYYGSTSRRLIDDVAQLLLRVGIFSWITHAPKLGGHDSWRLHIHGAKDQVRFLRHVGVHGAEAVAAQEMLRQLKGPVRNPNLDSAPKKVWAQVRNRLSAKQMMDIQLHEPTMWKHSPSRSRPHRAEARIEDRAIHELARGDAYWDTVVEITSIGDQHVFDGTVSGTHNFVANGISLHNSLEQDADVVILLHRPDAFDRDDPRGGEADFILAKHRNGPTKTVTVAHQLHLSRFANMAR

Protein RecA = biological target: T3, Protein RecA (Mycobacterium tuberculosis, UniProt P9WHJ3); assay: Fluorescence Cell-Free Homogeneous Dose Retest to Identify Inhibitors of RecA-Intein Splicing Activity. [Related pubchem assays (depositor defined):AID2097, AID2223, AID489010, AID492950]; format: functional
T3 sequence (P9WHJ3 whole entry): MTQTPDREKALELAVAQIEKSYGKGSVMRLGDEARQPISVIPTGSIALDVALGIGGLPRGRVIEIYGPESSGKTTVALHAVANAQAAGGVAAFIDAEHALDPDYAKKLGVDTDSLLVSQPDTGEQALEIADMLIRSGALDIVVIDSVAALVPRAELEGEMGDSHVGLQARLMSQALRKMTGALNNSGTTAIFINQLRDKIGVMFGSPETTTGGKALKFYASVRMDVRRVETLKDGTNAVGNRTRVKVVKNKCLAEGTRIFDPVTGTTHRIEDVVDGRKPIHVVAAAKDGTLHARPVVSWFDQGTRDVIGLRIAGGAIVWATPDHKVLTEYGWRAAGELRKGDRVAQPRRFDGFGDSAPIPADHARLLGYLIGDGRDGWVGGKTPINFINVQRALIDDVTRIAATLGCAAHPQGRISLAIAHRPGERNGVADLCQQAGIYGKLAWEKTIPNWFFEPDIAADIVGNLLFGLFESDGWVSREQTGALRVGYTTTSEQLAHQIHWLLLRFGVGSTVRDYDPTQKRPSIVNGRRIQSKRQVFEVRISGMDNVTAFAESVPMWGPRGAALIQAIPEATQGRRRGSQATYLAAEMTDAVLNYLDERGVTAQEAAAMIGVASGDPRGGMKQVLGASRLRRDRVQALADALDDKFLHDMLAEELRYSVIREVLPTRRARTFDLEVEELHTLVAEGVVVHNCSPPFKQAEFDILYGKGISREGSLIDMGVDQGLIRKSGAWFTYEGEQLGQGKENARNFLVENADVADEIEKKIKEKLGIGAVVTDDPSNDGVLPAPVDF

[13] = MC4R antagonists, dose response, counter-screen for LGR2 antagonist project, cell-based, plate reader, cherry pick (AID 743444); format: functional;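 further: transfected HEK 293 cells stimulated with alpha-MSH peptide; potency of inhibitors of the alpha-MSH evoked signal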
[14] = Shn3 3'UTR reporter inhibitors, dose response, cell-based, Clone20 osteoblasts, firefly luciferase, cherry-picked (AID 624132); format: functional;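 further: firefly luciferase luminescence from reporter carrying the Shn3 3'UTR in osteoblasts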
[15] = biological target: Heat shock protein HSP 90-alpha (Homo sapiens, UniProt P07900); format: functional, organism-based
Beta Lactamase = Beta Lactamase (Pseudomonas aeruginosa, UniProt Q932Y6); assay: beta-lactamase reporter inhibitor potency, dose response, artefact control for TLR9-MyD88 binding inhibitor project, BLA reporter cells, FRET fluorescence (AID 588341); format: cell-based;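 further: cell based assay in CHO-K1 cells stably expressing beta-lactamase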
[16] = control 3'UTR Renilla luciferase suppression, dose response, counter-screen for Shn3 inhibitor project, cell-based, Clone20-Shn3RL, cherry-picked (AID 624133); format: functional
[17] = biological target: T4, Short transient receptor potential channel 4 (Mus musculus, UniProt Q9QUQ5); assay: mouse TRPC4 channel inhibitors, dose response, cell-based, HEK293 TRPC4/mu-opioid, Fluo-4 calcium (AID 434942); format: functional;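 further: potency of inhibitors blocking the TRPC4 calcium response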
T4 sequence (Q9QUQ5 whole entry): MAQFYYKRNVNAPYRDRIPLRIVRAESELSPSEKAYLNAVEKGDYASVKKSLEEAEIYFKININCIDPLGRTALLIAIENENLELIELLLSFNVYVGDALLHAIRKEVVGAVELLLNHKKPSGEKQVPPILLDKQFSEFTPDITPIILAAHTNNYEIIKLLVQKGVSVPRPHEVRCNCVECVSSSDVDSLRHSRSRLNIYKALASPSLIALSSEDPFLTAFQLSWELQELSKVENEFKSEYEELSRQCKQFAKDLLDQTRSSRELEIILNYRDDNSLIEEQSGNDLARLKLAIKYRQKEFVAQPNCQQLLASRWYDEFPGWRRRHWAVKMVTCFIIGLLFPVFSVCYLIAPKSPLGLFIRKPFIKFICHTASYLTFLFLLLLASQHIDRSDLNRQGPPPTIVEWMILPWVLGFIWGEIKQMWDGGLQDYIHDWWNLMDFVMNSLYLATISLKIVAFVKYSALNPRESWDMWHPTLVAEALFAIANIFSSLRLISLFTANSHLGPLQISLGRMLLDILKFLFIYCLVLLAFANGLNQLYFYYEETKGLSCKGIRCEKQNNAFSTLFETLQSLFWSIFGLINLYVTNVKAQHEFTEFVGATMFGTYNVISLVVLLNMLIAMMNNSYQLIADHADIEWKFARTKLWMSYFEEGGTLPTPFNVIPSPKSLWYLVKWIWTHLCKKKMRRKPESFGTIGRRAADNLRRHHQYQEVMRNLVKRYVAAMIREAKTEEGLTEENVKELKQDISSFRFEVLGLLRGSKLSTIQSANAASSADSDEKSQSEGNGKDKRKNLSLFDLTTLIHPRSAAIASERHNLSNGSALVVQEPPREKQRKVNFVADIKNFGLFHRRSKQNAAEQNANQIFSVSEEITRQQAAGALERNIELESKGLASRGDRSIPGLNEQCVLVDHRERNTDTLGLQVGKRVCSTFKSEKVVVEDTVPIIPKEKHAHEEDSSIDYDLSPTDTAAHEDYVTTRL

[18] = inhibitors of PGC1a acetylation in cells, dose response, cell-based, cherry-picked samples (AID 720514); format: functional;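 further: potency may reflect raised or lowered acetylation signal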
[19] = biological target: T5, Polyadenylate-binding protein 1 (Homo sapiens, UniProt P11940); assay: PABP1 MLLE–PAM2 interaction inhibitors, dose response, miRNA deadenylation inhibitor project, biochemical, fluorescence polarization, Cy5-PAM2 peptide, secondary (AID 602260); format: functional; details: read-out: IC50_Mean
[20] = A549 cell cytotoxicity, dose response, cytotoxicity control, plate reader, cherry-pick, antagonist series (AID 743412); format: functional, cell-based
[21] = HepG2 cell cytotoxicity, dose response, cytotoxicity control for Shn3 inhibitor project, CellTiter-Glo, cherry-picked (AID 624134); format: functional, cell-based
[22] = biological target: T5, Polyadenylate-binding protein 1; assay: PABP1 MLLE–PAM2 binding inhibitor potency, dose response, biochemical, fluorescence polarization, FITC-PAM2 peptide (AID 602259); format: functional; details: read-out: IC50_Mean
[23] = biological target: T6, Tyrosine-protein phosphatase non-receptor type 7 (Homo sapiens, UniProt P35236); assay: inhibitors of human HePTP phosphatase, […], biochemical, absorbance, leukemia target (AID 521); format: functional
T6 sequence (P35236 whole entry): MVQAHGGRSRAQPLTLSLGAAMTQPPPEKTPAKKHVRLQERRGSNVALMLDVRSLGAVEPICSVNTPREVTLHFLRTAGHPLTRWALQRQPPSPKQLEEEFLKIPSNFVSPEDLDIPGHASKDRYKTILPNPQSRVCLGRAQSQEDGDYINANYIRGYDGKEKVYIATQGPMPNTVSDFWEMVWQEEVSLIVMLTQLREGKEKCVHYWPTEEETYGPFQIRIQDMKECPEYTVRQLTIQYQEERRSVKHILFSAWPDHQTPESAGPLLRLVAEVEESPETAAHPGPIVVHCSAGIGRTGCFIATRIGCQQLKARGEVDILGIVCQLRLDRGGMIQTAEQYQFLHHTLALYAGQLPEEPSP

T5 sequence (P11940 whole entry): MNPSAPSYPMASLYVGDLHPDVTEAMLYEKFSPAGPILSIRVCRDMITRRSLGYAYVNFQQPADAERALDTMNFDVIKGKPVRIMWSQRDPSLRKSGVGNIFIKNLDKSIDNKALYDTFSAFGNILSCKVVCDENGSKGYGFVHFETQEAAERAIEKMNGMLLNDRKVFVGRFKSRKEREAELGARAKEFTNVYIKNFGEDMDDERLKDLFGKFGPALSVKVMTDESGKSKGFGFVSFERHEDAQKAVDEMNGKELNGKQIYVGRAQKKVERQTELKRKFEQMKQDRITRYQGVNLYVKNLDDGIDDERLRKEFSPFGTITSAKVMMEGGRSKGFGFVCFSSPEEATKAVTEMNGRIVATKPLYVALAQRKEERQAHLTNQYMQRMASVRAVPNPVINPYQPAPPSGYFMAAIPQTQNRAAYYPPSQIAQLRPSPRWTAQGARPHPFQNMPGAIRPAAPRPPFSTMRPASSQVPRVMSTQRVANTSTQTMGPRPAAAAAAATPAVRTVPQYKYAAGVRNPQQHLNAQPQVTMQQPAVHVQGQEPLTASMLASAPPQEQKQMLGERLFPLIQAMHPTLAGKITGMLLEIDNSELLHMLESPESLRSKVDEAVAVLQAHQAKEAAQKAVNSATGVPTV
Bifunctional protein GlmU, sequence (P9WMN3 whole entry): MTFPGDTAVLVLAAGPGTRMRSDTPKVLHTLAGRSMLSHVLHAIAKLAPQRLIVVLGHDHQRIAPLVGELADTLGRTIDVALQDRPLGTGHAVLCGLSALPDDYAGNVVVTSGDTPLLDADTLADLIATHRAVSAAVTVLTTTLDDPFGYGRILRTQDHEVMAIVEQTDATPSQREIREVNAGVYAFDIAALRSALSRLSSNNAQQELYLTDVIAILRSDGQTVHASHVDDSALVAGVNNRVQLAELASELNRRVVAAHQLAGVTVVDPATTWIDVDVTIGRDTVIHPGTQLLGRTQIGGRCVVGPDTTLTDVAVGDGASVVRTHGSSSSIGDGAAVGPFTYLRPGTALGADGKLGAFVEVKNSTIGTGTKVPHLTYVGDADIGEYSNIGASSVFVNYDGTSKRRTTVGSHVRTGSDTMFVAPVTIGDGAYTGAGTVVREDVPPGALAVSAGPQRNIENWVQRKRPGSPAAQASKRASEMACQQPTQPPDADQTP
26S proteasome non-ATPase regulatory subunit 14, sequence (O00487 whole entry): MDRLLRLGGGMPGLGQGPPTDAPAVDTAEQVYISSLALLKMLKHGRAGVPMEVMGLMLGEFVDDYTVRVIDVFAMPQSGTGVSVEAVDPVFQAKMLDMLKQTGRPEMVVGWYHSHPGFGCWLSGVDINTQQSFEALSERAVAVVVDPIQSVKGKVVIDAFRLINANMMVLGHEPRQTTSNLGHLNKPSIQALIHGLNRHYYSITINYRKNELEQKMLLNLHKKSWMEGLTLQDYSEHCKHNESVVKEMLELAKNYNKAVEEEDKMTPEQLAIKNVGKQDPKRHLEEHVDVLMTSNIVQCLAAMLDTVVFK
Beta Lactamase, sequence (Q932Y6 whole entry): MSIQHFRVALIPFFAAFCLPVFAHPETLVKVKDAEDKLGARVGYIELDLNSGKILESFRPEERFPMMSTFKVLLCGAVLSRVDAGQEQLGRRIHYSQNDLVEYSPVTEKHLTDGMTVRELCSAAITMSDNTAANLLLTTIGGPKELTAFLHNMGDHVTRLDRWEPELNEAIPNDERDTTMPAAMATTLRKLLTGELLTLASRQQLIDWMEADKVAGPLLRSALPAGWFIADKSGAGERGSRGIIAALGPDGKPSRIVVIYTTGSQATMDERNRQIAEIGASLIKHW
72 kDa type IV collagenase, sequence (P08253 whole entry): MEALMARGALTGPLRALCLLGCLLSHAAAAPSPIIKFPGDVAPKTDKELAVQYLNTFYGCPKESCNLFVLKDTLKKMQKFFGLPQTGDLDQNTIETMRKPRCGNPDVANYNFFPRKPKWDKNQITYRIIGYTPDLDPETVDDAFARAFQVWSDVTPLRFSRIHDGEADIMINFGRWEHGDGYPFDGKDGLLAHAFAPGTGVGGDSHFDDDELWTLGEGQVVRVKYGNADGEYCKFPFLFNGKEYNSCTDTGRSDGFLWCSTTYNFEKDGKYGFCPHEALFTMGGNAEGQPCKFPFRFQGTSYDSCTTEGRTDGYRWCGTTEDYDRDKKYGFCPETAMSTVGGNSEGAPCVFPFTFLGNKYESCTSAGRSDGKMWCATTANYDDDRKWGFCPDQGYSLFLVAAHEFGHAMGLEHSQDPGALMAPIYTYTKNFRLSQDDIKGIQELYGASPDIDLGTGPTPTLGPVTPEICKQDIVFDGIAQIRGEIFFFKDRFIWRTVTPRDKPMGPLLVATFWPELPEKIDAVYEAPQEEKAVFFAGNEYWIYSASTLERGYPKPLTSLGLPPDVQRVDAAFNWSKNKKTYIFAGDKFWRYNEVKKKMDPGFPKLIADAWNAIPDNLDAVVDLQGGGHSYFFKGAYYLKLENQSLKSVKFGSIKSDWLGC

## COc1ccc2nc3c(O)n(/N=C/c4ccc(OC)c(CN5CCCC5)c4)c(C)nc-3c2c1
cells
  EC50: 0.336 µM (active)
Prothrombin [1]
  IC50: 87.9 µM (active)
[2]
  EC50: 17.8 µM (active)
[3]
  IC50: 13 µM (active)
[4]
  IC50: > 100 µM (inactive)
Streptokinase A
  EC50: 32.3 µM (active)
Streptococcus
  EC50: > 150 µM (not active)
[5]
  EC50: < 0.1 µM (active)
[6]
  EC50: > 60 µM (not active)

## Cn1cc(C(=O)NCc2cccs2)c(=O)c2cc(S(=O)(=O)N3CCCC3)ccc21
Prothrombin [7]
  IC50: 0.691 µM (active)

## CC(Oc1ccc(Br)cc1)C(=O)Nc1ccc(S(=O)(=O)N(C)C2CCN(C)CC2)cc1 (centres undefined)
cells
  EC50: 0.073 µM (active)
[5]
  EC50: < 0.1 µM (active)
[6]
  EC50: 8.64 µM (active)

## CCCNC(=O)c1nnsc1[S+]([O-])c1ccc(Cl)cc1 (centres undefined)
[8]
  AC50: 1.85 µM (active)
[9]
  IC50: 103 µM (active)
[10]
  AC50: 7.07 µM (active)
CHO
  IC50: 1.81 µM (active)
[11]
  AC50: 16 µM (active)
[12]
  AC50: 33.8 µM (active)
Protein RecA
  EC50: 24.4 µM (inconclusive)
[13]
  AC50: 2.29 µM (active)
[14]
  AC50: 1.26 µM (active)
[15]
  AC50: 2.2 µM (active)
Beta Lactamase
  IC50: 15.6 µM (inactive)
[16]
  AC50: 6.98 µM (active)
[17]
  EC50: 7.5 µM (active)
[18]
  AC50: 12.8 µM (active)
[19]
  IC50: > 66 µM (inactive)
[20]
  AC50: 4.44 µM (active)
[21]
  AC50: 29.7 µM (active)
[22]
  IC50: > 66 µM (inactive)
[5]
  EC50: 0.886 µM (active)
[6]
  EC50: 2.21 µM (active)

## NS(=O)(=O)c1cc2c(cc1C(F)(F)F)NCNS2(=O)=O [HYDROFLUMETHIAZIDE]
[23]
  IC50: > 100 µM (not active)
